Reference: EP0596449A2, “Serotonin receptor antagonists for treating myocardial ischemia” (E.R. SQUIBB & SONS, INC., priority 1992, dated 1994)
Marks after values point to notes of the source that are not given here.

Tests used:
[1] = system: globally ischemic rat hearts; experiment: Global ischemia (25 min) and reperfusion (30 min) in isolated perfused rat hearts, 5HT2 antagonists
Method: To determine the effect of serotonin receptor agonists and antagonists, male Sprague-Dawley rats (450-550 g) were prepared as described below. The rats were anesthetized using 100 mg/kg sodium pentobarbital (i.p.). They were intubated and then treated with i.v. heparin (1000 U/kg). While being mechanically ventilated, their hearts were perfused in situ via retrograde cannulation of the aorta. The hearts were then excised and […] moved to a Langendorff apparatus where they were perfused with Krebs-henseleit bicarbonate buffer solution ((mM): 112 NaCI, 25 NaHC03, 5 KCI, 1.2 MgS04, 1 KH2P04, 1.25 CaC12, 2 pyruvate and 11.5 dextrose bubbled with 95% 02 - 5% C02) at a constant perfusion pressure (85 mm Hg). A water-filled latex balloon attached to a metal cannula was then inserted into the left ventricle and connected to a Statham pressure transducer for measurement of left ventricular pressure. The hearts were allowed to equilibrate for 15 min, at which time end diastolic pressure (EDP) was adjusted to 5 mm Hg and this balloon volume was maintained for the duration of the experiment. Pre-ischemia or pre-drug function, heart rate and coronary flow (extracorporeal electromagnetic flow probe) were then measured. Left ventricular developed pressure (LVDP) was calculated from the difference between left ventricular peak systolic pressure and EDP. Cardiac temperature was maintained throughout the experiment by submerging the hearts in 37 ° C buffer which was allowed to accumulate in a stoppered, heated chamber.
The model of global ischemia in isolated rat hearts was designed such that any protective effects observed are generally due to a direct cardioprotective effect and not to effects on cornonary or peripheral vascular tone. Also, because the hearts are perfused with an oxygenated buffer solution, platelets or the normal components of an inflammatory response are probably not important mediators of the ischemic/reperfusion injury observed in this model. […] Agents which exert their protective effects either through their effects on the peripheral or coronary vasculature such as nitrates or agents which act on blood or act on some component of the inflammatory response such as thromboxane A2 receptor antagonists are generally ineffective in this model.
The hearts were divided into the following groups: 1. Vehicle (0.1% DMSO) treatment beginning 10 minutes before the onset of ischemia (n = 8). 2. 0.3-10 µM ketanserin treatment beginning 10 minutes before the onset of ischemia (n = 4-5 per group). 3. 10 µM ketanserin given only during reperfusion (n = 4). 4. 0.1-10 µM cinanserin treatment beginning 10 minutes before global ischemia (n = 4-10). 5. 1-10 µM LY 53857 treatment beginning 10 minutes before the onset of ischemia (n = 4 per group). After 10 minutes of vehicle or drug pretreatment, the hearts were subjected to 25 minutes of total global ischemia which was initiated by shutting off the perfusate flow. Reperfusion was begun (without drug except in the case of group 3 above) and allowed to continue for 30 minutes. At this time, final measurements of EDP, LVDP and coronary flow were obtained. Cumulative LDH relase was measured in the reperfusate and was used as the index of cellular and membrane viability. In all hearts, the time to contracture during ischemia was measured and used as an index of cardioprotection during ischemia. Time to contracture is defined as the time (minutes) necessary for the first 5 mm Hg increase in EDP to occur during global ischemia. The data were expressed as the percent change in time to contracture from vehicle.

alpha, Adrenoceptors = experiment: Methoxamine-induced contraction in rat aortic rings (alpha1 blocking potency); conditions: 45 minute incubation; Figure 5B
Method: In order to determine the alpha1 blocking potency of cinanserin, ketanserin and LY 53857, their effect on methoxamine induced aortic constriction was determined. Male Sprague-Dawley rats were sacrificed using C02. Aortic rings (3 mm in width) were cut, denuded of endothelium by gently rolling the rings on moistened filter paper, and mounted on stainless steel hooks in 20 mL muscle chambers containing oxygenated physiological salt solution (PSS) of the following composition (in mM): 118.4 NaCI, 4.7 KCI, 1.2 MgS04, 1.2 KH2P04, 1.9 CaC12, 25.0 NaHC03, 10.1 D-glucose, and 0.01 mM Na2EDTA maintained at 37 °C. The hooks were connected to Grass FT03C transducers for recording of isometric force development. The rings were stretched to 2 g preload during the equilibration period. During equilibration the rings were periodically stimulated with 24 mM KCI to determine contractility. The effectiveness of endothelial removal was confirmed by the absence of relaxation by 1 µM acetylcholine of a contraction in response to 0.01 µM phenylephrine.
Various concentrations of the test compounds were then added to individual baths and allowed a 45 minute incubation before cumulative concentration response curves for methoxamine (1 nM-30 /1.M) were obtained. Solvent controls were run in parallel. […]

[2] = 0.3 µM, 30 Min Post-Reperfusion
[3] = 0.3 µM, Pre-Ischemia, Post-Drug
[4] = 3 µM (Reper), given only during reperfusion, 30 Min Post-Reperfusion
[5] = 3 µM (Reper), given only during reperfusion, Pre-Ischemia, Post-Drug
[6] = 3 µM (Reper), given only during reperfusion, Pre-Ischemia, Pre-Drug

`O=C(c1ccc(F)cc1)C1CCN(CCn2c(=O)[nH]c3ccccc3c2=O)CC1` [Ketanserin, ketanserin] was tested, and the “Coronary Flow” value [1, 2] was 13±2^a mL/min/g, the HR [1, 2] was 266±18^a beats/min and the LVDP [1, 2] was 20±5^a mmHg. For the same compound, the “Coronary Flow” value [1, 3] was 16 ± 2 mL/min/g, the HR [1, 3] was 275±6 beats/min and the LVDP [1, 3] was 141±10 mmHg. The “Coronary Flow” value ([1]; 0.3 µM, Pre-Ischemia, Pre-Drug) was 20 ± 2 mL/min/g, the HR ([1]; 0.3 µM, Pre-Ischemia, Pre-Drug) was 291±2 beats/min and the LVDP ([1]; 0.3 µM, Pre-Ischemia, Pre-Drug) was 146±5 mmHg. For the same compound, the “Coronary Flow” value ([1]; 1 µM, 30 Min Post-Reperfusion) was 10±1^a mL/min/g, the HR ([1]; 1 µM, 30 Min Post-Reperfusion) was 243±35^a beats/min and the LVDP ([1]; 1 µM, 30 Min Post-Reperfusion) was 29±5^a mmHg. For the same compound, the “Coronary Flow” value ([1]; 1 µM, Pre-Ischemia, Post-Drug) was 15 ± 1 mL/min/g, the HR ([1]; 1 µM, Pre-Ischemia, Post-Drug) was 272±11 beats/min and the LVDP ([1]; 1 µM, Pre-Ischemia, Post-Drug) was 128±4 mmHg. The “Coronary Flow” value ([1]; 1 µM, Pre-Ischemia, Pre-Drug) was 19 ± 1 mL/min/g, the HR ([1]; 1 µM, Pre-Ischemia, Pre-Drug) was 311±16 beats/min and the LVDP ([1]; 1 µM, Pre-Ischemia, Pre-Drug) was 130±6 mmHg. For the same compound, the “Coronary Flow” value [1, 4] was 14±1^a mL/min/g, the HR [1, 4] was 196±14^a,b beats/min and the LVDP [1, 4] was 33±6^a mmHg. The “Coronary Flow” value [1, 5] was 17 ± 2 mL/min/g, the HR [1, 5] was 285±11 beats/min and the LVDP [1, 5] was 130±5 mmHg. For the same compound, the “Coronary Flow” value [1, 6] was 19 ± 1 mL/min/g, the HR [1, 6] was 292±15 beats/min and the LVDP [1, 6] was 134±4 mmHg. For the same compound, the “Coronary Flow” value ([1]; 3 µM, 30 Min Post-Reperfusion) was 13±1^a mL/min/g, the HR ([1]; 3 µM, 30 Min Post-Reperfusion) was 246±22^a beats/min and the LVDP ([1]; 3 µM, 30 Min Post-Reperfusion) was 53±7^a,b mmHg. The “Coronary Flow” value ([1]; 3 µM, Pre-Ischemia, Post-Drug) was 15 ± 1 mL/min/g, the HR ([1]; 3 µM, Pre-Ischemia, Post-Drug) was 244±16^a beats/min and the LVDP ([1]; 3 µM, Pre-Ischemia, Post-Drug) was 127±9 mmHg. The “Coronary Flow” value ([1]; 3 µM, Pre-Ischemia, Pre-Drug) was 19 ± 1 mL/min/g, the HR ([1]; 3 µM, Pre-Ischemia, Pre-Drug) was 310±13 beats/min and the LVDP ([1]; 3 µM, Pre-Ischemia, Pre-Drug) was 128±8 mmHg. For the same compound, the “Coronary Flow” value ([1]; 10 µM, 30 Min Post-Reperfusion) was 13±2^a mL/min/g, the HR ([1]; 10 µM, 30 Min Post-Reperfusion) was 220±22^a beats/min and the LVDP ([1]; 10 µM, 30 Min Post-Reperfusion) was 66±4^a,b mmHg. The “Coronary Flow” value ([1]; 10 µM, Pre-Ischemia, Post-Drug) was 14 ± 2 mL/min/g, the HR ([1]; 10 µM, Pre-Ischemia, Post-Drug) was 196±19^a,b beats/min and the LVDP ([1]; 10 µM, Pre-Ischemia, Post-Drug) was 128±5 mmHg. For the same compound, the “Coronary Flow” value ([1]; 10 µM, Pre-Ischemia, Pre-Drug) was 19 ± 1 mL/min/g, the HR ([1]; 10 µM, Pre-Ischemia, Pre-Drug) was 290±6 beats/min and the LVDP ([1]; 10 µM, Pre-Ischemia, Pre-Drug) was 135±5 mmHg. The EC25 ([1]; Rattus norvegicus, drug given 10 minutes before global ischemia, read-out: EC25 (concentration which increased the time to contracture 25% above vehicle group values)) was 5.5 µM, the “cumulative LDH release during reperfusion” value ([1]; given only during reperfusion (Reper)) was “did not cause a reduction in LDH release” and the “protective effect for any variable measured” value ([1]; given only during reperfusion at 3 µM) was “no protective effect”. The “reperfusion LDH release” value ([1]; only at the 10 µM concentration, Figure 2B) was “significantly reduced LDH relase” and the “concentration from which the shift of the methoxamine-tension curve was significant” value (alpha, Adrenoceptors) was 0.3 µM.
